This is an account of results in PMC8462099 (Molecular cell, 2021).

Experiment [1] addresses T1, AMPKγ1 (Homo sapiens, UniProt P54619). Description: [3H]AMP binding to GST fusion protein.
Experiment [2] has as its target T1, AMPKγ1. Description: [3H]inositol saturation binding.

T1 sequence (P54619 whole entry, the tested form may be a part): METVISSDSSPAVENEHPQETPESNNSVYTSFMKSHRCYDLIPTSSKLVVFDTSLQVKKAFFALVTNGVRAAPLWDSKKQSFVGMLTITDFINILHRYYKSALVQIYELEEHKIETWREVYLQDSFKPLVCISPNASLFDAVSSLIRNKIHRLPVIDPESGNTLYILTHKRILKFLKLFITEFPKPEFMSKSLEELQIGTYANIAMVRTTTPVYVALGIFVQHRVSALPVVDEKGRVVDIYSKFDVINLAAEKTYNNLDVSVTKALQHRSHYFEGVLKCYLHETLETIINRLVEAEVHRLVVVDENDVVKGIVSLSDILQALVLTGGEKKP

Regarding `Nc1ncnc2c1ncn2[C@@H]1O[C@H](COP(=O)(O)O)[C@@H](O)[C@H]1O` [AMP], the IC50 – broadly, the midpoint of a concentration-inhibition curve – in experiment [1] was determined as 1900 nM.

`O[C@H]1[C@H](O)[C@@H](O)[C@H](O)[C@@H](O)[C@H]1O` [Ins, inositol]: the Kd in experiment [2] turned out to be 98.2 pmol.
